In US11230543B2, “Biaryl monobactam compounds and methods of use thereof for the treatment of bacterial infections” (priority 2015, dated 2022):
Counter-ions that a name gives are not always drawn.

Tests used:
[1] = test system: Pseudomonas aeruginosa expressing AmpC (CL5701); assay: Antibiotic activity: growth inhibitory concentration (OD600), Pseudomonas aeruginosa CL5701; type: cell-based; settings: lowest concentration inhibiting 95% of bacterial growth; in the presence of β lactamase inhibitor Relebactam 4 μg/mL; 35±2° C. for 22 hours; tested range 100 μM to 0.098 μM
Protocol: (§1) Antibiotic Activity: Determination of Growth Inhibitory Concentration
(§2) The concentrations of compounds required to inhibit the growth of various strains of bacteria were determined in an assay that assessed bacterial growth by measuring optical density at 600 nm (OD600). The bacterial strains tested included the clinical strains Escherichia coli expressing NDM-1 (CLB30016), Klebsiella pneumoniae expressing KPC-1 (CL6569), Acinetobacter baumannii expressing TEM-1, AmpC, and Oxa-24/40 (CL6188) and Pseudomonas aeruginosa expressing AmpC (CL5701). All compounds were tested in the presence of a β lactamase inhibitor (BLi, Relebactam) in 384-well microplates. The clinical strains were stored as frozen single use stocks, thawed and diluted into 1.1× cation-adjusted Mueller-Hinton II broth to achieve approximately 2×10^5 CFU/mL. Test compounds were dissolved in DMSO and diluted 1:50 in the assay, resulting in a final concentration range of 100 μM to 0.098 μM. On the day of the assay, 1 μL of test compound was added to the plate followed by 4 μL of 50 μg/mL BLi in MOPS buffer and 45 μL of diluted bacteria. Plates were centrifuged at 1000 rpm for 30 seconds, shaken at approximately 800 rpm for 1 minute, and incubated at 35±2° C. for 22 hours. The concentration of BLi used in the assay was 4 μg/mL. At the end of the incubation, absorbance at 600 nm was determined using a spectrophotometer. Inhibition was quantitated by identifying the lowest concentration of test compound that was required to inhibit 95% of the growth of the bacteria. The results for Examples 1-126 are reported in Table I, expressed as the concentration of compound that inhibited 95% of bacterial growth (Minimum Inhibitory Threshold Concentration; MITC95).

[2] = test system: Klebsiella pneumoniae expressing KPC-1 (CL6569); assay: Antibiotic activity: growth inhibitory concentration (OD600), Klebsiella pneumoniae CL6569; type: cell-based; settings: lowest concentration inhibiting 95% of bacterial growth, in the presence of β lactamase inhibitor Relebactam 4 μg/mL, 35±2° C. for 22 hours, tested range 100 μM to 0.098 μM
Protocol: as §1, §2

C[n+]1cc(-c2ccc(OC[C@H](O/N=C(\C(=O)N[C@@H]3C(=O)N(OS(=O)(=O)O)C3(C)C)c3csc(N)n3)C(=O)O)cc2)cn1CCCNCCCN [Example 104, (S)-3-((E)-2-(((S)-2-(4-(1-(3-((3-aminopropyl)amino)-propyl)-2-methyl-1H-pyrazol-2-ium-4-yl)phenoxy)-1-carboxyethoxy)imino)-2-(2-aminothiazol-4-yl)acetamido)-2,2-dimethyl-4-oxoazetidin-1-yl sulfate, 3TFA]
PA_CL5701 MITC95 [1]: 6.25 µM
KP_CL6569 MITC95 [2]: 0.1953 µM

C[n+]1cc(-c2ccc(OC(CO/N=C(\C(=O)N[C@@H]3C(=O)N(OS(=O)(=O)[O-])C3(C)C)c3csc(N)n3)C(=O)O)cc2)cn1CCCN (stereo partly drawn) [Example 84, (3S)-3-((2-(4-(1-(3-aminopropyl)-2-methyl-1H-pyrazol-2-ium-4-yl)phenoxy)-2-carboxyethoxy)imino)-2-(2-aminothiazol-4-yl)acetamido)-2,2-dimethyl-4-oxoazetidin-1-yl sulfate]
PA_CL5701 MITC95 [1]: 40 µM
KP_CL6569 MITC95 [2]: 2.5 µM

C[n+]1cc(-c2ccc(NCC(O/N=C(\C(=O)N[C@@H]3C(=O)N(OS(=O)(=O)[O-])C3(C)C)c3csc(N)n3)C(=O)O)cc2)cn1CCCN (stereo partly drawn) [Example 91, (3S)-3-(2-((2-((4-(1-(3-aminopropyl)-2-methyl-1H-pyrazol-2-ium-4-yl)phenyl)amino)-1-carboxyethoxy)imino)-2-(2-aminothiazol-4-yl)acetamido)-2,2-dimethyl-4-oxoazetidin-1-yl sulfate]
PA_CL5701 MITC95 [1]: 12.5 µM
KP_CL6569 MITC95 [2]: 0.7813 µM

C[n+]1cc(-c2ccc(OC[C@H](O/N=C(/C(=O)N[C@@H]3C(=O)N(OS(=O)(=O)[O-])C3(C)C)c3csc(N)n3)C(=O)O)cc2)cn1CCCNCCN [Example 102, (S)-3-((E)-2-(((S)-2-(4-(1-(3-((2-aminoethyl)amino)propyl)-2-methyl-1H-pyrazol-2-ium-4-yl)phenoxy)-1-carboxyethoxy)imino)-2-(2-aminothiazol-4-yl)acetamido)-2,2-dimethyl-4-oxoazetidin-1-yl sulfate]
PA_CL5701 MITC95 [1]: 3.125 µM
KP_CL6569 MITC95 [2]: 0.125 µM

C[n+]1cc(-c2ccc(OC[C@H](O/N=C(\C(=O)N[C@@H]3C(=O)N(OS(=O)(=O)O)C3(C)C)c3csc(N)n3)C(=O)O)cc2F)cn1CCCN [Example 24, (S)-3-((Z)-2-(((S)-2-(4-(1-(3-aminopropyl)-2-methyl-1H-pyrazol-2-ium-4-yl)-3-fluorophenoxy)-1-carboxyethoxy)imino)-2-(2-aminothiazol-4-yl)acetamido)-2,2-dimethyl-4-oxoazetidin-1-yl sulfate]
PA_CL5701 MITC95 [1]: 3.125 µM
KP_CL6569 MITC95 [2]: 0.3906 µM

C[n+]1cc(-c2ccc(OC[C@H](O/N=C(\C(=O)N[C@@H]3C(=O)N(OS(=O)(=O)[O-])C3(C)C)c3csc(N)n3)C(=O)O)cc2Cl)cn1CCCN [Example 38, (S)-3-((Z)-2-(((S)-2-(4-(1-(3-aminopropyl)-2-methyl-1H-pyrazol-2-ium-4-yl)-3-chlorophenoxy)-1-carboxyethoxy)imino)-2-(2-aminothiazol-4-yl)acetamido)-2,2-dimethyl-4-oxoazetidin-1-yl sulfate]
PA_CL5701 MITC95 [1]: 6.25 µM
KP_CL6569 MITC95 [2]: 0.3906 µM

C[n+]1c(-c2ccc(OC[C@H](O/N=C(\C(=O)N[C@@H]3C(=O)N(OS(=O)(=O)O)C3(C)C)c3csc(N)n3)C(=O)O)cc2)ccn1CCCN.O=C([O-])C(F)(F)F [Example 18, 1-(3-aminopropyl)-3-(4-((S)-2-((((Z)-1-(2-aminothiazol-4-yl)-2-(((S)-2,2-dimethyl-4-oxo-1-(sulfooxy)azetidin-3-yl)amino)-2-oxo-ethylidene)amino)oxy)-2-carboxyethoxy)phenyl)-2-methyl-1H-pyrazol-2-ium 2,2,2-trifluoroacetate]
PA_CL5701 MITC95 [1]: 6.25 µM
KP_CL6569 MITC95 [2]: 0.3906 µM

C[n+]1cc(-c2ccc(OCC(C)(O/N=C(\C(=O)N[C@@H]3C(=O)N(OS(=O)(=O)O)C3(C)C)c3csc(N)n3)C(=O)O)cc2)cn1CCCN (single isomer, unassigned) [Example 23A, 2,2,2-trifluoroacetate]
PA_CL5701 MITC95 [1]: 3.125 µM
KP_CL6569 MITC95 ([2]; 2,2,2-trifluoroacetate): 0.3906 µM

C[n+]1cc(NCCN)ccc1-c1ccc(OC[C@H](O/N=C(\C(=O)N[C@@H]2C(=O)N(OS(=O)(=O)[O-])C2(C)C)c2csc(N)n2)C(=O)O)cc1 [Example 72, (S)-3-((Z)-2-(((S)-2-(4-(5-((2-aminoethyl)amino)-1-methylpyridin-1-ium-2-yl)phenoxy)-1-carboxyethoxy)imino)-2-(2-aminothiazol-4-yl)acetamido)-2,2-dimethyl-4-oxoazetidin-1-yl sulfate]
PA_CL5701 MITC95 [1]: 6.25 µM
KP_CL6569 MITC95 [2]: 0.3906 µM

Cc1cc(-c2ccc(OC[C@H](O/N=C(\C(=O)N[C@@H]3C(=O)N(OS(=O)(=O)O)C3(C)C)c3csc(N)n3)C(=O)O)cc2)n(CCCN)[n+]1C.O=C([O-])C(F)(F)F [Example 21, 1-(3-aminopropyl)-5-(4-((S)-2-((((Z)-1-(2-aminothiazol-4-yl)-2-(((S)-2,2-dimethyl-4-oxo-1-(sulfooxy)azetidin-3-yl)amino)-2-oxo-ethylidene)amino)oxy)-2-carboxyethoxy)phenyl)-2,3-dimethyl-1H-pyrazol-2-ium 2,2,2-trifluoroacetate]
PA_CL5701 MITC95 [1]: 12.5 µM
KP_CL6569 MITC95 [2]: 0.3906 µM

C[n+]1cc(-c2ccc(OC[C@H](O/N=C(\C(=O)N[C@@H]3C(=O)N(OS(=O)(=O)[O-])C3(C)C)c3csc(N)n3)C(=O)O)cc2)ccc1CNCCN [Example 78, (S)-3-((Z)-2-(((S)-2-(4-(6-(((2-aminoethyl)amino)methyl)-1-methylpyridin-1-ium-3-yl)phenoxy)-1-carboxyethoxy)imino)-2-(2-aminothiazol-4-yl)acetamido)-2,2-dimethyl-4-oxoazetidin-1-yl sulfate]
PA_CL5701 MITC95 [1]: 12.5 µM
KP_CL6569 MITC95 [2]: 0.7813 µM

Cn1c(-c2ccc(OC[C@H](O/N=C(\C(=O)N[C@@H]3C(=O)N(OS(=O)(=O)O)C3(C)C)c3csc(N)n3)C(N)=O)cc2)cn(CCCN)c1=N [Example 114, (S)-3-((Z)-2-((((S)-1-amino-3-(4-(1-(3-aminopropyl)-2-imino-3-methyl-2,3-dihydro-1H-imidazol-4-yl)phenoxy)-1-oxopropan-2-yl)oxy)imino)-2-(2-aminothiazol-4-yl)acetamido)-2,2-dimethyl-4-oxoazetidin-1-yl sulfate]
PA_CL5701 MITC95 [1]: 50 µM
KP_CL6569 MITC95 [2]: 1.563 µM

C[n+]1cc(-c2ccc(OC[C@](C)(O/N=C(\C(=O)N[C@@H]3C(=O)N(OS(=O)(=O)O)C3(C)C)c3csc(N)n3)C(=O)O)cc2)cn1CCCN [Example 39, (S)-3-((Z)-2-((((S)-1-(4-(1-(3-aminopropyl)-2-methyl-1H-pyrazol-2-ium-4-yl)phenoxy)-2-carboxypropan-2-yl)oxy)imino)-2-(2-aminothiazol-4-yl)acetamido)-2,2-dimethyl-4-oxoazetidin-1-yl sulfate]
PA_CL5701 MITC95 [1]: 3.125 µM
KP_CL6569 MITC95 [2]: 0.3255 µM

C[n+]1ccc(-c2ccc(OC[C@H](O/N=C(\C(=O)N[C@@H]3C(=O)N(OS(=O)(=O)[O-])C3(C)C)c3csc(N)n3)C(=O)O)cc2)cc1NCCN [Example 62, (S)-3-((Z)-2-(((S)-2-(4-(2-((2-aminoethyl)amino)-1-methylpyridin-1-ium-4-yl)phenoxy)-1-carboxyethoxy)imino)-2-(2-aminothiazol-4-yl)acetamido)-2,2-dimethyl-4-oxoazetidin-1-yl sulfate]
PA_CL5701 MITC95 [1]: 5.8 µM
KP_CL6569 MITC95 [2]: 0.36 µM
